# Results from ChEMBL document CHEMBL1641362, “Inhibition of P-glycoprotein-mediated Multidrug Resistance (MDR) by N,N-bis(cyclohexanol)amine aryl esters: further restriction of molecular flexibility maintains high potency and efficacy” (Bioorg Med Chem Lett, 2011).
# Experiment: Inhibition of Pgp-mediated multidrug resistance in doxorubicin-resistant human K562 cells assessed as drug level required for 50% increase in nuclear concentration of pirarubicin by fluorescence assay
# Type: cell-based
# Details: read-out: I50
row,Compound,IC50 [µM]
1,COc1cc(CCC(=O)O[C@H]2CC[C@@H](N(C)[C@H]3CC[C@@H](OC(=O)c4cc(OC)c(OC)c(OC)c4)CC3)CC2)cc(OC)c1OC,1.1
2,COc1cc(C#CC(=O)O[C@H]2CC[C@H](N(C)[C@H]3CC[C@H](OC(=O)c4cc(OC)c(OC)c(OC)c4)CC3)CC2)cc(OC)c1OC,0.07
3,COc1cc(/C=C/C(=O)O[C@H]2CC[C@H](N(C)[C@H]3CC[C@@H](OC(=O)c4cc(OC)c(OC)c(OC)c4)CC3)CC2)cc(OC)c1OC (mixture of isomers),0.092
4,COc1cc(CCC(=O)O[C@H]2CC[C@H](N(C)[C@H]3CC[C@@H](OC(=O)c4cc(OC)c(OC)c(OC)c4)CC3)CC2)cc(OC)c1OC (mixture of isomers),0.63
5,COc1cc(CCC(=O)O[C@H]2CC[C@H](N(C)[C@H]3CC[C@H](OC(=O)c4cc(OC)c(OC)c(OC)c4)CC3)CC2)cc(OC)c1OC (mixture of isomers),0.61
6,COc1cc(CCC(=O)O[C@H]2CC[C@@H](N(C)[C@H]3CC[C@H](OC(=O)c4cc(OC)c(OC)c(OC)c4)CC3)CC2)cc(OC)c1OC (mixture of isomers),0.35
7,COc1cc(C#CC(=O)O[C@H]2CC[C@H](N(C)[C@H]3CC[C@@H](OC(=O)c4cc(OC)c(OC)c(OC)c4)CC3)CC2)cc(OC)c1OC (mixture of isomers),0.08
8,COc1cc(C#CC(=O)O[C@H]2CC[C@@H](N(C)[C@H]3CC[C@@H](OC(=O)c4cc(OC)c(OC)c(OC)c4)CC3)CC2)cc(OC)c1OC (mixture of isomers),0.07
9,COc1cc(C#CC(=O)O[C@H]2CC[C@@H](N(C)[C@H]3CC[C@H](OC(=O)c4cc(OC)c(OC)c(OC)c4)CC3)CC2)cc(OC)c1OC (mixture of isomers),0.02
